Assay results: US20220257793A1, “COMPOSITIONS AND USE OF ENGINEERED MYOGENIC CELLS” (Institute of Zoology, Chinese Academy of Sciences, priority 2019, published 2022)

What was measured:
LTS progenitors [1] = assay: let-7 microRNA mimic transfection; assay type: cell-based, human
Experimental: HSKM, TS and LTS cells were seeded in gelatin-coated six-well plates at a density of 4×10^4 cells/well and maintained with culture medium. PEI (14.5 ng/μL), mature Mirvana hsa-let-7a-5p (#4464066; Assay ID: MC10050; Thermo Fisher) and/or hsa-let-7b-5p (#4464066; Assay ID: MC11050; Thermo Fisher) mimic (0.25 μM) or Cy5-conjugated scramble RNAi control, was mixed with serum-free DMEM to a total volume of 200 μL. This mixture was transfected onto each well.

TS progenitors = assay: Cell counts after drug treatment, TS; assay type: cell-based, human
Experimental: (§1) HSKM, TS and LTS cells were seeded in gelatin-coated six-well plates at a density of 4×10^4 cells/well and maintained with culture medium. One day after seeding, culture medium was replaced with culture medium containing either paraquat (Sigma-Aldrich; 2 μM), hydrogen peroxide (ICM Pharma; 100 μM), DTT (Thermo Fisher; 250 μM), 2-deoxyglucose (Sigma-Aldrich; 2.5 mM), KC7F2 (Sigma-Aldrich; 10 μM) or DMSO/H2O controls. For ROS modulators, cells were allowed to grow for 72 hours post-treatment, while for 2-DG, cells were allowed to grow for eight days post-treatment.

LTS progenitors [2] = assay: Cell counts after drug treatment, LTS; assay type: cell-based, human
Experimental: as §1

HSKM progenitors = assay: Cell counts after drug treatment, HSKM; assay type: cell-based, human
Experimental: as §1

LTS progenitors [3] = assay: qRT-PCR after ROS-modulating drugs in LTS progenitors; assay type: cell-based, human
Experimental: as §1, with “RNA was extracted by TRIzol (Thermo Fisher) and reverse transcribed with Superscript III (Thermo Fisher) according to manufacturer's instructions. The resulting cDNA was diluted 5× before performing qPCR with KAPA SYBR FAST on ABI Prism 7900HT (Applied Biosystems) according to manufacturers' instructions. HSKM,” for “HSKM,”

[4] = test system: mitochondrial ROS in HSKM, TS and LTS cells; assay: Flow cytometry oxidation state assay with mito-Grx1-roGFP2; assay type: cell-based, human; details: all progenitor types (HSKM, TS, LTS); H2O2 100 μM, DTT 250 μM
Experimental: HSKM, TS and LTS cells were transduced with the roGFP2 retrovirus for 48 hours. Cells were allowed to expand to 15-cm tissue culture plates and then harvested for fluorescence-activated cell sorting for roGFP2+ cells using the FITC channel with a BD FACS Aria II cell sorter. HSKM, TS and LTS cells were seeded in gelatin-coated six-well plates at a density of 4×10^4 cells/well and maintained with culture medium. […] Cells were allowed to grow for 48 hours and then harvested for flow cytometry using a BD LSR Fortessa x-20 analyzer. HSKM, TS and LTS cells were used as non-fluorescent gating controls for each of their respective roGFP2+ counterparts. For each cell line, FSC, SSC, 405 nm/AmCyan and 488 nm/FITC channels were captured. FCS files were exported from FACS Diva and imported into FlowJo, where raw-value CSV files were exported. Raw values of 405 nm/488 nm ratio was calculated and then averaged for each cell line and condition.

diabetic nude mice = assay: Transplantation of iMusc-Insm cells into streptozotocin diabetic nude mice; assay type: in vivo, mouse; details: after streptozotocin treatment, before transplantation
Experimental: To determine whether differentiated iMusc-Insm cells were able to produce bioactive insulin and treat diabetes mellitus in vivo, 5×10^6 iMusc-Insm and iMusc-neo myoblast cells were transplanted by direct skeletal muscle injection into 6-8 week old male athymic nude mice (B6.Cg-Foxn1^nn/J; Jackson Labs) that have received daily intraperitoneal injections of 40 mg/kg streptozotocin (Tocris Bioscience), dissolved in 0.1M citrate buffer (pH 4.5), for 5 consecutive days, to model diabetes mellitus. Glycemia and insulinemia were measured in fed mice every 3-7 days, for 3 weeks after injection of the cells. Blood glucose was measured using a glucometer (Roche), while plasma insulin was measured by ELISA (Mercodia).

## hsa-let-7b-5p
LTS progenitors [1]
  effect on proliferation rate (cell counts): neither let-7a, nor let-7b, nor both, had any effect

## O[C@H](CS)[C@H](O)CS (racemic) [DTT, dithiothreitol]
TS progenitors
  progenitor proliferation (cell counts): no significant effects
LTS progenitors [2]
  progenitor proliferation (cell counts): significant suppression of LTS progenitor proliferation in a dose-dependent fashion
HSKM progenitors
  progenitor proliferation (cell counts): no significant effects
LTS progenitors [3]
  HIF1A targets and glycolysis genes mRNA: could suppress
  OxPhos mRNA levels: failed to perturb
[4]
  effect on mtROS: most reliably reduced mtROS

## hsa-let-7a-5p
LTS progenitors [1]
  effect on proliferation rate (cell counts): neither let-7a, nor let-7b, nor both, had any effect

## OO [H2O2, hydrogen peroxide]
TS progenitors
  progenitor proliferation (cell counts): no significant effects
LTS progenitors [2]
  progenitor proliferation (cell counts): significant suppression of LTS progenitor proliferation in a dose-dependent fashion
HSKM progenitors
  progenitor proliferation (cell counts): no significant effects
LTS progenitors [3]
  HIF1A targets and glycolysis genes mRNA: could suppress
  OxPhos mRNA levels: failed to perturb
[4]
  effect on mtROS: most reliably increased mtROS

## O=CC[C@@H](O)[C@H](O)[C@H](O)CO [2-deoxyglucose]
TS progenitors
  progenitor proliferation (cell counts): mild but significant decreases
LTS progenitors [2]
  progenitor proliferation (cell counts): mild but significant decreases
HSKM progenitors
  progenitor proliferation (cell counts): mild but significant decreases

## CN(N=O)C(=O)N[C@H]1C(O)O[C@H](CO)[C@@H](O)[C@@H]1O (mixture of isomers) [streptozotocin]
Diabetic nude mice
  fed glucose levels: ~346 mg/dL
  fed insulin levels: ~63 μIU/ml

## O=S(=O)(NCCSSCCNS(=O)(=O)c1cc(Cl)ccc1Cl)c1cc(Cl)ccc1Cl [KC7F2]
TS progenitors
  progenitor proliferation (cell counts): no significant effects
LTS progenitors [2]
  progenitor proliferation (cell counts): significantly suppressed LTS progenitor proliferation
HSKM progenitors
  progenitor proliferation (cell counts): no significant effects
